Assay results taken from ChEMBL document CHEMBL1201862, “PubChem BioAssay data set” (2004).
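Five compound concentrations were applied to cells in 96-well plates for 48 hours; endpoints were derived by simple linear interpolation of the resulting dose-response curve. The concentration for 50% growth inhibition is given as GI50.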 Calls of active or inactive are those of the source. Cut-off read from the data, not from the text of the source: active = GI50 up to about 1.1 µM and inactive = higher.

Experiments:
Assay in all cases: NCI-60 cell line screen, 48 h
HT-29 = system: HT-29
KM12 = system: KM12
OVCAR-5 = system: OVCAR-5
SR = system: SR
TK-10 = system: TK-10
RXF 393 = system: RXF 393
MDA-MB-435 = system: MDA-MB-435
A549 = system: A549
EKVX = system: EKVX
PC-3 = system: PC-3
NCI-H460 = system: NCI-H460
RPMI-8226 = system: RPMI-8226
T47D = system: T47D
SF-539 = system: SF-539
NCI-H23 = system: NCI-H23
DU-145 = system: DU-145
UO-31 = system: UO-31
SW-620 = system: SW-620
UACC-257 = system: UACC-257
SF-295 = system: SF-295
UACC-62 = system: UACC-62
MOLT-4 = system: MOLT-4
SNB-75 = system: SNB-75
IGROV-1 = system: IGROV-1
ACHN = system: ACHN
HL-60 = system: HL-60
K562 = system: K562
A498 = system: A498
SK-MEL-28 = system: SK-MEL-28
HCT-15 = system: HCT-15
SK-MEL-5 = system: SK-MEL-5
MDA-MB-231 = system: MDA-MB-231
OVCAR-4 = system: OVCAR-4
HOP-62 = system: HOP-62
OVCAR-8 = system: OVCAR-8
SK-MEL-2 = system: SK-MEL-2
U-251 = system: U-251
CAKI-1 = system: CAKI-1
MCF7 = system: MCF7
COLO 205 = system: COLO 205
SNB-19 = system: SNB-19
OVCAR-3 = system: OVCAR-3
HOP-92 = system: HOP-92
M14 = system: M14
HCC 2998 = system: HCC 2998
NCI/ADR-RES = system: NCI/ADR-RES
SK-OV-3 = system: SK-OV-3
MDA-N = system: MDA-N
CCRF-CEM = system: CCRF-CEM
LOX IMVI = system: LOX IMVI
Malme-3M = system: Malme-3M
SF-268 = system: SF-268
SN12C = system: SN12C
HCT-116 = system: HCT-116
786-0 = system: 786-0
NCI-H226 = system: NCI-H226
Hs-578T = system: Hs-578T
NCI-H522 = system: NCI-H522

`CCOC(=O)c1csc(NC(=O)C(C)N2CCOCC2)n1` (stereo not given) was tested, and the GI50 (HT-29) was > 100 µM (inactive), the GI50 (KM12) was > 100 µM (inactive) and the GI50 (OVCAR-5) was > 100 µM (inactive). The GI50 (SR) was > 100 µM (inactive), the GI50 (TK-10) was > 100 µM (inactive) and the GI50 (RXF 393) was > 100 µM (inactive). For the same compound, the GI50 (MDA-MB-435) was > 100 µM (inactive), the GI50 (A549) was > 100 µM (inactive) and the GI50 (EKVX) was > 100 µM (inactive). The GI50 (PC-3) was > 100 µM (inactive), the GI50 (NCI-H460) was > 100 µM (inactive) and the GI50 (RPMI-8226) was > 100 µM (inactive). For the same compound, the GI50 (T47D) was > 100 µM (inactive), the GI50 (SF-539) was > 100 µM (inactive) and the GI50 (NCI-H23) was > 100 µM (inactive). The GI50 (DU-145) was > 100 µM (inactive), the GI50 (UO-31) was > 100 µM (inactive) and the GI50 (SW-620) was > 100 µM (inactive). The GI50 (UACC-257) was > 100 µM (inactive), the GI50 (SF-295) was > 100 µM (inactive) and the GI50 (UACC-62) was > 100 µM (inactive). The GI50 (MOLT-4) was > 100 µM (inactive), the GI50 (SNB-75) was > 100 µM (inactive) and the GI50 (IGROV-1) was > 100 µM (inactive). The GI50 (ACHN) was > 100 µM (inactive), the GI50 (HL-60) was > 100 µM (inactive) and the GI50 (K562) was > 100 µM (inactive). The GI50 (A498) was > 100 µM (inactive), the GI50 (SK-MEL-28) was > 100 µM (inactive) and the GI50 (HCT-15) was greater than 100 µM. For the same compound, the GI50 (SK-MEL-5) was > 100 µM (inactive), the GI50 (MDA-MB-231) was > 100 µM (inactive) and the GI50 (OVCAR-4) was > 100 µM (inactive). For the same compound, the GI50 (HOP-62) was > 100 µM (inactive), the GI50 (OVCAR-8) was > 100 µM (inactive) and the GI50 (SK-MEL-2) was > 100 µM (inactive). The GI50 (U-251) was > 100 µM (inactive), the GI50 (CAKI-1) was > 100 µM (inactive) and the GI50 (MCF7) was > 100 µM (inactive). For the same compound, the GI50 (COLO 205) was > 100 µM (inactive), the GI50 (SNB-19) was > 100 µM (inactive) and the GI50 (OVCAR-3) was > 100 µM (inactive). The GI50 (HOP-92) was > 100 µM (inactive), the GI50 (M14) was > 100 µM (inactive) and the GI50 (HCC 2998) was > 100 µM (inactive). The GI50 (NCI/ADR-RES) was > 100 µM (inactive), the GI50 (SK-OV-3) was > 100 µM (inactive) and the GI50 (MDA-N) was > 100 µM (inactive). The GI50 (CCRF-CEM) was > 100 µM (inactive), the GI50 (LOX IMVI) was > 100 µM (inactive) and the GI50 (Malme-3M) was > 100 µM (inactive).

For `COc1cc(Cn2c3c(c4c(CN(C)C)c(O)ccc42)C(=O)c2ccccc2C3=O)cc(OC)c1`, the GI50 (HT-29) was 26.9 µM (inactive), the GI50 (KM12) was 26.4 µM (inactive) and the GI50 (OVCAR-5) was 21.7 µM (inactive). The GI50 (SR) was 10.3 µM (inactive), the GI50 (TK-10) was 28.7 µM (inactive) and the GI50 (MDA-MB-435) was 18.1 µM (inactive). For the same compound, the GI50 (A549) was 15.1 µM (inactive), the GI50 (EKVX) was 20 µM (inactive) and the GI50 (SF-268) was 14.8 µM (inactive). For the same compound, the GI50 (PC-3) was 21 µM (inactive), the GI50 (NCI-H460) was 17.7 µM (inactive) and the GI50 (SN12C) was 22.9 µM (inactive). For the same compound, the GI50 (RPMI-8226) was 18.5 µM (inactive), the GI50 (T47D) was 15.4 µM (inactive) and the GI50 (SF-539) was 16.3 µM (inactive). For the same compound, the GI50 (HCT-116) was 13.6 µM (inactive), the GI50 (NCI-H23) was 15.7 µM (inactive) and the GI50 (DU-145) was 21.7 µM (inactive). For the same compound, the GI50 (UO-31) was 14.6 µM (inactive), the GI50 (SW-620) was 18.7 µM (inactive) and the GI50 (UACC-257) was 22.8 µM (inactive). For the same compound, the GI50 (SF-295) was 21.5 µM (inactive), the GI50 (UACC-62) was 23.1 µM (inactive) and the GI50 (MOLT-4) was 24.4 µM (inactive). The GI50 (SNB-75) was 0.414 µM (active), the GI50 (786-0) was 12.5 µM (inactive) and the GI50 (ACHN) was 15.3 µM (inactive). The GI50 (HL-60) was 22.4 µM (inactive), the GI50 (K562) was 14 µM (inactive) and the GI50 (A498) was 10.1 µM (inactive). The GI50 (SK-MEL-28) was 15.8 µM (inactive), the GI50 (HCT-15) was 14 µM and the GI50 (SK-MEL-5) was 11.9 µM (inactive). The GI50 (MDA-MB-231) was 17.7 µM (inactive), the GI50 (OVCAR-4) was 13.9 µM (inactive) and the GI50 (HOP-62) was 15.7 µM (inactive). The GI50 (OVCAR-8) was 14.6 µM (inactive), the GI50 (SK-MEL-2) was 16.3 µM (inactive) and the GI50 (U-251) was 14.8 µM (inactive). For the same compound, the GI50 (CAKI-1) was 13 µM (inactive), the GI50 (MCF7) was 15.9 µM (inactive) and the GI50 (COLO 205) was 25.5 µM (inactive). The GI50 (SNB-19) was 18.7 µM (inactive), the GI50 (OVCAR-3) was 24.2 µM (inactive) and the GI50 (NCI-H226) was 33.2 µM (inactive). For the same compound, the GI50 (M14) was 17.2 µM (inactive), the GI50 (HCC 2998) was 17.9 µM (inactive) and the GI50 (NCI/ADR-RES) was 17.6 µM (inactive). The GI50 (SK-OV-3) was 20.1 µM (inactive), the GI50 (MDA-N) was 15.7 µM (inactive) and the GI50 (CCRF-CEM) was 24.3 µM (inactive). For the same compound, the GI50 (LOX IMVI) was 16.6 µM (inactive), the GI50 (Malme-3M) was 23.2 µM (inactive) and the GI50 (Hs-578T) was 19.1 µM (inactive).

In the case of `O=[N+]([O-])/C=C(\CS(=O)(=O)c1ccccc1)c1ccc2c(c1)OCO2`, the GI50 (HT-29) is reported as 53.1 µM (inactive), the GI50 (KM12) is reported as 28.4 µM (inactive) and the GI50 (OVCAR-5) is reported as 27 µM (inactive). For the same compound, the GI50 (SR) was 47.5 µM (inactive), the GI50 (RXF 393) was 64.3 µM (inactive) and the GI50 (MDA-MB-435) was 23.8 µM (inactive). The GI50 (A549) was 37.8 µM (inactive), the GI50 (EKVX) was > 100 µM (inactive) and the GI50 (SF-268) was 27.2 µM (inactive). For the same compound, the GI50 (SN12C) was 39.7 µM (inactive), the GI50 (RPMI-8226) was 87.1 µM (inactive) and the GI50 (T47D) was > 100 µM (inactive). The GI50 (SF-539) was > 100 µM (inactive), the GI50 (HCT-116) was 34.8 µM (inactive) and the GI50 (NCI-H23) was 5.69 µM (inactive). The GI50 (DU-145) was 38.9 µM (inactive), the GI50 (UO-31) was 28.6 µM (inactive) and the GI50 (SW-620) was 75.3 µM (inactive). The GI50 (SF-295) was 36.7 µM (inactive), the GI50 (UACC-62) was 48.2 µM (inactive) and the GI50 (MOLT-4) was 67.9 µM (inactive). For the same compound, the GI50 (SNB-75) was > 100 µM (inactive), the GI50 (786-0) was 38.5 µM (inactive) and the GI50 (IGROV-1) was 80.5 µM (inactive). The GI50 (ACHN) was 45.6 µM (inactive), the GI50 (HL-60) was 38 µM (inactive) and the GI50 (K562) was 66.5 µM (inactive). The GI50 (A498) was 31.8 µM (inactive), the GI50 (SK-MEL-28) was 69.2 µM (inactive) and the GI50 (HCT-15) was 37.2 µM. The GI50 (SK-MEL-5) was 45.1 µM (inactive), the GI50 (MDA-MB-231) was 23.1 µM (inactive) and the GI50 (HOP-62) was 92.9 µM (inactive). The GI50 (OVCAR-8) was 60.1 µM (inactive), the GI50 (U-251) was 88.5 µM (inactive) and the GI50 (CAKI-1) was 29.2 µM (inactive). For the same compound, the GI50 (MCF7) was 48.2 µM (inactive), the GI50 (COLO 205) was 53.5 µM (inactive) and the GI50 (OVCAR-3) was 28.4 µM (inactive). The GI50 (NCI-H226) was 30 µM (inactive), the GI50 (HOP-92) was > 100 µM (inactive) and the GI50 (M14) was 20.8 µM (inactive). For the same compound, the GI50 (NCI-H522) was 21.7 µM (inactive), the GI50 (HCC 2998) was > 100 µM (inactive) and the GI50 (NCI/ADR-RES) was 19.7 µM (inactive). For the same compound, the GI50 (SK-OV-3) was 33.1 µM (inactive), the GI50 (MDA-N) was 39.2 µM (inactive) and the GI50 (CCRF-CEM) was 0.56 µM (active). For the same compound, the GI50 (LOX IMVI) was 37.2 µM (inactive) and the GI50 (Hs-578T) was 38.1 µM (inactive).
